Assay results published in ChEMBL document CHEMBL4610070, “Talauxins: Hybrid Phenalenone Dimers from Talaromyces stipitatus” (J Nat Prod, 2020).
In brackets after ≈: the same amount, converted by molar mass. Activity calls are given as the source filed them. The rule behind the calls is not given here.

Legend:
[1] = Antiproliferative activity against mouse NS1 cells assessed as reduction in cell viability after 48 hrs by resazurin dye based assay; format: functional; settings: for IC50: NS1, 48 h; for MIC: 48 h
Mus musculus = species: Mus musculus; test: Antiproliferative activity against mouse NS1 cells assessed as reduction in cell viability up to 100 ug/ml after 48 hrs by resazurin dye based assay; format: functional
Bacillus subtilis [2] = test: Antibacterial activity against Bacillus subtilis ATCC 6633 assessed as reduction in microbial growth up to 100 ug/ml after incubated for 48 hrs by resazurin dye based assay; format: functional, organism-based
Saccharomyces cerevisiae [3] = test: Antifungal activity against Saccharomyces cerevisiae ATCC 9763 assessed as reduction in microbial growth up to 100 ug/ml after incubated for 48 hrs by bromocresol green dye based assay; format: functional, organism-based
Candida albicans [4] = test: Antifungal activity against Candida albicans ATCC 10231 assessed as reduction in microbial growth up to 100 ug/ml after incubated for 48 hrs by bromocresol green dye based assay; format: functional, organism-based
Escherichia coli [5] = test: Antibacterial activity against Escherichia coli ATCC 25922 assessed as reduction in microbial growth up to 100 ug/ml after incubated for 48 hrs by resazurin dye based assay; format: functional, organism-based
Saccharomyces cerevisiae [6] = test: Antifungal activity against Saccharomyces cerevisiae ATCC 9763 assessed as reduction in microbial growth after incubated for 48 hrs by bromocresol green dye based assay; format: functional, organism-based; settings: ATCC 9763, 48 h
Bacillus subtilis [7] = test: Antibacterial activity against Bacillus subtilis ATCC 6633 assessed as reduction in microbial growth after incubated for 48 hrs by resazurin dye based assay; format: functional, organism-based; settings: ATCC 6633, 48 h
Escherichia coli [8] = test: Antibacterial activity against Escherichia coli ATCC 25922 assessed as reduction in microbial growth after incubated for 48 hrs by resazurin dye based assay; format: functional, organism-based
Candida albicans [9] = test: Antifungal activity against Candida albicans ATCC 10231 assessed as reduction in microbial growth after incubated for 48 hrs by bromocresol green dye based assay; format: functional, organism-based

Structure (SMILES)	IC50 [1]	Activity (Mus musculus)	Activity (Bacillus subtilis [2])	Activity (Saccharomyces cerevisiae [3])	Activity (Candida albicans [4])	Activity (Escherichia coli [5])	MIC [1]	IC50 (Saccharomyces cerevisiae [6])	IC50 (Bacillus subtilis [7])	IC50 (Escherichia coli [8])	IC50 (Candida albicans [9])	MIC (Bacillus subtilis [7])
O=c1[nH]cc(F)c(=O)[nH]1 [FLUOROURACIL]	4.6 µM	–	–	–	–	–	–	–	–	–	–	–
CO[C@@]12c3c(C)cc(O)c4c(=O)n([C@@H](CC(C)C)C(=O)O)cc(c34)C(=O)[C@@H]1[C@]13COC(=O)c4c(O)cc(C)c(c41)C(=O)[C@H]2[C@@H]3OC(C)=O	–	inactive	inactive	inactive	inactive	inactive	–	–	–	–	–	–
CO[C@@]12c3c(C)cc(O)c4c(=O)occ(c34)C(=O)[C@@H]1[C@]13COC(=O)c4c(O)cc(C)c(c41)C(=O)[C@H]2[C@@H]3OC(C)=O	140 µM	–	–	–	–	–	100 µg/mL (≈ 183 µM)	> 200 µM	> 200 µM	Not Active	Not Active	–
CC1(C)S[C@@H]2[C@H](NC(=O)[C@H](N)c3ccccc3)C(=O)N2[C@H]1C(=O)O [AMPICILLIN]	–	–	–	–	–	–	–	–	0.9 µM	Not Active	–	–
CO[C@@]12c3c(C)cc(O)c4c(=O)n([C@H](CC(C)C)C(=O)O)cc(c34)C(=O)[C@@H]1[C@]13COC(=O)c4c(O)cc(C)c(c41)C(=O)[C@H]2[C@@H]3OC(C)=O	–	inactive	inactive	inactive	inactive	inactive	–	–	–	–	–	–
CO[C@@]12c3c(C)cc(O)c4c(=O)n([C@@H](CCC(N)=O)C(=O)O)cc(c34)C(=O)[C@@H]1[C@]13COC(=O)c4c(O)cc(C)c(c41)C(=O)[C@H]2[C@@H]3OC(C)=O	–	inactive	inactive	inactive	inactive	inactive	–	–	–	–	–	–
Cc1cc(O)c2c3c1C(=O)[C@@H]1C4=C(C(=O)c5cn([C@H](C(=O)O)C(C)C)c(=O)c6c(O)cc(C)c4c56)[C@@]3(COC2=O)[C@H]1O	–	inactive	inactive	inactive	inactive	inactive	–	–	–	–	–	–
CC[C@H](C)[C@@H](C(=O)O)n1cc2c3c(c(C)cc(O)c3c1=O)[C@]1(OC)[C@H](C2=O)[C@]23COC(=O)c4c(O)cc(C)c(c42)C(=O)[C@H]1[C@@H]3OC(C)=O	–	inactive	inactive	inactive	inactive	inactive	–	–	–	–	–	–
CC[C@@H](C)[C@H](C(=O)O)n1cc2c3c(c(C)cc(O)c3c1=O)[C@]1(OC)[C@H](C2=O)[C@]23COC(=O)c4c(O)cc(C)c(c42)C(=O)[C@H]1[C@@H]3OC(C)=O	–	inactive	inactive	inactive	inactive	inactive	–	–	–	–	–	–
CO[C@@]12c3c(C)cc(O)c4c(=O)n([C@@H](CCC(=O)O)C(=O)O)cc(c34)C(=O)[C@@H]1[C@]13COC(=O)c4c(O)cc(C)c(c41)C(=O)[C@H]2[C@@H]3OC(C)=O	–	inactive	inactive	inactive	inactive	inactive	–	–	–	–	–	–
Cc1cc(O)c2c3c(c(O)cc(O)c13)C(=O)C(O)=C2O	70 µM	–	–	–	–	–	25 µg/mL (≈ 91.2 µM)	> 400 µM	265 µM	Not Active	Not Active	100 µg/mL
Clc1ccccc1C(c1ccccc1)(c1ccccc1)n1ccnc1 [CLOTRIMAZOLE]	–	–	–	–	–	–	–	0.4 µM	–	–	Not Active	–
CO[C@@]12c3c(C)cc(O)c4c(=O)n([C@H](C(=O)O)C(C)C)cc(c34)C(=O)[C@@H]1[C@]13COC(=O)c4c(O)cc(C)c(c41)C(=O)[C@H]2[C@@H]3OC(C)=O	–	inactive	inactive	inactive	inactive	inactive	–	–	–	–	–	–
CC(=O)CC1(O)C(=O)c2c(O)cc(C)c3c(O)cc(O)c(c23)C1=O (stereo not drawn)	–	inactive	inactive	inactive	inactive	inactive	–	–	–	–	–	–
